System: Male rats (SD Rat)
Test: Paw thermal sensitivity (Plantar test) in rats after regional anesthesia of the sciatic and saphenous nerves
Type: in vivo
Conditions: for response time relative to group 2 (anesthetic + buffer) / response time (average time before lifting the treated limb): 150 microliters at each locus; for elimination of effects of regional anesthesia (overall conclusion of the model): rat model, lidocaine HCl 2%/epinephrine 1:100,000 nerve block; for response time (average time before lifting the treated limb): 7 min after lidocaine HCl 2%/epinephrine 1:100,000, 5 minutes after administration, anesthetic + buffer group 20-35 seconds, no-anesthetic control 4-6 seconds
Experimental: An animal model was performed to test ROS/RNS dosages and effects on sensory anesthesia following administration of regional anesthesia, as follows. Male rats (SD Rat) weighing between 300-350 grams, were supplied by Harlan, Israel, and were randomly assigned to experimental groups. Rats were provided with sterile rodent diet with free access to drinking water. In the animal model, a testing chamber (Plantar test 3730 apparatus, made by Ugo Basile) was used in which the rats were placed on a surface which is heated and increases heat gradually. A measurement of time from placement of the rat's hind limb on the hot surface to lifting the hind limb was recorded. […] All rats were habituated to the testing facilities for five days before the model, and then introduced into the testing chamber two days prior to the testing of regional anesthesia in order to habituate rats to the apparatus. One day prior to regional anesthetic administration, baseline body weight measurements and baseline paw thermal sensitivity were recorded. Rats were randomly divided into 7 groups having 4 rats in each group. Group 1 was not administered anesthesia, but was administered saline solution as a vehicle at the time of regional anesthetic administration to groups 2-7. Groups 2 through 7 were administered lidocaine HCl 2%/epinephrine 1:100,000 ready to use solution (hereinafter, “anesthetic,”) 7 minutes before administering test items. Regional anesthetic was injected around the sciatic and saphenous nerves at a volume of 150 microliters at each site of the rat's left hind limb. Injection around the saphenous nerve was performed via local injection to/next to the adductor canal which runs on the medial aspect of the thigh between the vastus medialis and the sartorius muscles, about 2-3 cm below the inguinal canal. Injection around the sciatic nerve was performed via local injection to the sciatic notch, positioned 1 mm from the femoral shaft between the greater trochanter and ischial tuberosity pointing toward the ischium. Five minutes after injection of regional anesthetic, an assessment of the nerve blocks was performed by pinching the rat's paw to determine if the regional anesthetics were properly administered. Seven minutes after regional anesthetic administration, test agents were administered to the same loci, in a volume of 150 microliters at each locus. Groups 1 and 2 were administered a vehicle buffer as test agents. Group 3 was administered 0.1 mM hydrogen peroxide, formulated in saline solution. […] PON which was administered to rats was prepared by commercially available sodium peroxynitrite in NaCl and NaOH each at a concentration of 0.3 molar, available from Cayman Chemical. The commercially available PON was diluted to the desired concentrations for injection, by forming a suspension in 0.3M NaCl, 0.1M glycine having a pH of 10.5. All rats were tested for paw thermal sensitivity at 5, 10, 15, 20, 60 and 120 minutes after administration of the test items using the testing chamber. The results of average time before lifting the treated limb in each rat for each time point was calculated and is depicted in FIG. 2.

Row | SMILES | response time relative to group 2 (anesthetic + buffer) (group 3: 0.1 mM hydrogen peroxide in saline, 5, 10 and 15 minute time points) | statistical significance of the effect on response time (group 3: 0.1 mM hydrogen peroxide, 4 rats per group) | elimination of effects of regional anesthesia (overall conclusion of the model) | response time (average time before lifting the treated limb) (group 4: PON 40 mM) | response time (average time before lifting the treated limb) (group 5: PON 10 mM) | response time relative to group 2 (anesthetic + buffer) (group 6: PON 1 mM, 5 and 10 minute time points)
1 | OO [H2O2, hydrogen peroxide] | decreased response time | not statistically significant | effective in quickly eliminating effects of regional anesthesia |  |  | 
2 | O=NOO [PON, sodium peroxynitrite] |  |  | effective in quickly eliminating effects of regional anesthesia | 4 to 6 s | 4 to 6 s | improved response time
